One assay deals with human CB2 receptors (Homo sapiens (Human), UniProt P34972). Description: functional cAMP assay, CHO cells expressing human CB2. It counts as cell-based. On the procedure:
(§1) CHO cells expressing human CB1 or CB2 receptors are seeded 17-24 hours prior to the experiment 50.000 cells per well in a black 96 well plate with flat clear bottom (Corning Costar #3904) in DMEM (Invitrogen No. 31331), 1×HT supplement, with 10% fetal calf serum and incubated at 5% CO2 and 37° C. in a humidified incubator. The growth medium was exchanged with Krebs Ringer Bicarbonate buffer with 1 mM IBMX and incubated at 30° C. for 30 min. Compounds were added to a final assay volume of 100 μl and incubated for 30 min at 30° C. Using the cAMP-Nano-TRF detection kit the assay (Roche Diagnostics) was stopped by the addition of 50 μl lysis reagent (Tris, NaCl, 1.5% Triton X100, 2.5% NP40, 10% NaN3) and 50 μl detection solutions (20 μM mAb Alexa700-cAMP 1:1, and 48 μM Ruthenium-2-AHA-cAMP) and shaken for 2 h at room temperature. The time-resolved energy transfer is measured by a TRF reader (Evotec Technologies GmbH), equipped with a ND:YAG laser as excitation source. The plate is measured twice with the excitation at 355 nm and at the emission with a delay of 100 ns and a gate of 100 ns, total exposure time 10 s at 730 (bandwidth 30 nm) or 645 nm (bandwidth 75 nm), respectively. The FRET signal is calculated as follows: FRET=T730-Alexa730-P(T645-B645) with P=Ru730-B730/Ru645-B645, where T730 is the test well measured at 730 nM, T645 is the test well measured at 645 nm, B730 and B645 are the buffer controls at 730 nm and 645 nm, respectively. cAMP content is determined from the function of a standard curve spanning from 10 μM to 0.13 nM cAMP.
(§2) EC50 values were determined using Activity Base analysis (ID Business Solution, Limited). The EC50 values for a wide range of cannabinoid agonists generated from this assay were in agreement with the values published in the scientific literature.
In general terms: cAMP levels reflect the balance of adenylyl cyclase and phosphodiesterase activity.

The target of a further assay is human CB1 receptors (Homo sapiens (Human), UniProt P21554). Briefly: functional cAMP assay, CHO cells expressing human CB1. It counts as cell-based. The method, then: as §1, §2
The mark [1] stands for this setting: Human CB1 EC50 (uM), functional cAMP assay, CHO cells expressing human CB1.
Where [2] appears, read: functional cAMP assay, CHO cells expressing human CB1; read-out: Human CB1 EC50.

Drawing on US9409866B2, “Pyridine-2-amides useful as CB2 agonists” (Hoffmann-La Roche Inc., priority 2012, dated 2016), this text covers EC50 for 23 compounds.

One may read the EC50 as the concentration needed to bring the measured effect to its halfway point.

Where two headings read alike, the source gives them in different places.

Chain of human CB1 receptors (P21554 whole entry): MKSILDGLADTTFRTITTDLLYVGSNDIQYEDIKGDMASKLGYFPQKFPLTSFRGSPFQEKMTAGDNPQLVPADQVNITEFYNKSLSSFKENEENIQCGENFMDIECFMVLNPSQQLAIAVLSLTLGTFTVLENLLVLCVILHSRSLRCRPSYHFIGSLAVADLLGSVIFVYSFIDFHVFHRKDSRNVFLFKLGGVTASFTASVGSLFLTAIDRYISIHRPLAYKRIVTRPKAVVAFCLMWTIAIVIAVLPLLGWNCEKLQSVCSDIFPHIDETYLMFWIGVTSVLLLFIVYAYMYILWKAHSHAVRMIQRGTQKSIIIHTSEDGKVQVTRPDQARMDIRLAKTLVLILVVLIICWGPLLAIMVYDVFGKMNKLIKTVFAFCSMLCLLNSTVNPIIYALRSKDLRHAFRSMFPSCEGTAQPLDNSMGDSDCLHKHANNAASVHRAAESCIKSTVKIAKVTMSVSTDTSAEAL
Chain of human CB2 receptors (P34972 whole entry): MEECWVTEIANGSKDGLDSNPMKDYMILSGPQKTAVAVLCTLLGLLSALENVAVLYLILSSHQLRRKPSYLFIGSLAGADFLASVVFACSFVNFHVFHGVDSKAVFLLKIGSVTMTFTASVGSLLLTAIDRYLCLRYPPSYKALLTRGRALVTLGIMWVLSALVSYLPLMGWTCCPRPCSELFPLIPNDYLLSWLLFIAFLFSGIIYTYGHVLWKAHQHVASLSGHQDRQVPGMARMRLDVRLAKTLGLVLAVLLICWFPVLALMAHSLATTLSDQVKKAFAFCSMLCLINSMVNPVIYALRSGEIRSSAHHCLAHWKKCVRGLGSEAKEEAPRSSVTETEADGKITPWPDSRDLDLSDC

`Cc1nc(C(C)(CS(C)(=O)=O)NC(=O)c2cc(O[C@@H](C)C(F)(F)F)c(C3CC3)cn2)no1` (stereo partly drawn) [Example 81, 5-Cyclopropyl-4-((S)-2,2,2-trifluoro-1-methyl-ethoxy)-pyridine-2-carboxylic acid [2-methanesulfonyl-1-methyl-1-(5-methyl-[1,2,4]oxadiazol-3-yl)-ethyl]-amide]: the EC50 on human CB2 receptors (Human CB2 EC50 (uM)) was determined as 0.0053 µM; at human CB1 receptors (setting [1]), 0.19 µM.
The corresponding values for `Cc1nc(C(C)(CC2CC2)NC(=O)c2cc(OCC(F)F)c(C3CC3)cn2)no1` (single isomer, unassigned) [Example 154, 5-cyclopropyl-N-[1-cyclopropyl-2-(5-methyl-1,2,4-oxadiazol-3-yl)propan-2-yl]-4-(2,2-difluoroethoxy)pyridine-2-carboxamide] are 0.0037 µM and more than 10 µM.
For the compound `Cc1nc(C(C)(CC2CC2)NC(=O)c2cc(O[C@@H](C)C(F)(F)F)c(C3CCC3)cn2)no1` (stereo partly drawn) [Example 120, 5-cyclobutyl-N-[1-cyclopropyl-2-(5-methyl-1,2,4-oxadiazol-3-yl)propan-2-yl]-4-[(2S)-1,1,1-trifluoropropan-2-yl]oxypyridine-2-carboxamide], the figures for the concentration giving a half-maximal response (EC50) at human CB2 receptors (read-out: Human CB2 EC50) and on human CB1 receptors (setting [2]) were 0.0008 µM and more than 10 µM, respectively.
In the case of `CC(CF)Oc1cc(C(=O)NC(C)(CC(N)=O)C2CC2)ncc1C1CC1` (single isomer, unassigned) [Example 303, N-(4-amino-2-cyclopropyl-4-oxobutan-2-yl)-5-cyclopropyl-4-(1-fluoropropan-2-yloxy)picolinamide], the EC50 was 0.0485 µM at human CB2 receptors (read-out: Human CB2 EC50) and more than 10 µM on human CB1 receptors (setting [2]).
The matching figures for `Cc1nc(C(C)(NC(=O)c2cc(O[C@@H](C)C(F)(F)F)c(C3CC3)cn2)C2CC2)no1` (single isomer, unassigned; epimer a) [Example 68]: 0.00395 µM and more than 10 µM.
For the compound `CNC(=O)[C@@H](NC(=O)c1cc(OCC(F)(F)F)c(C2CC2)cn1)C(C)(C)C` [Example 48, 5-Cyclopropyl-4-(2,2,2-trifluoro-ethoxy)-pyridine-2-carboxylic acid ((S)-2,2-dimethyl-1-methylcarbamoyl-propyl)-amide], the figures for the EC50 on human CB2 receptors (read-out: Human CB2 EC50) and at human CB1 receptors (setting [2]) were 0.00158 µM and 0.661 µM, respectively.
`CC(CC(N)=O)(NC(=O)c1cc(OCCF)c(C2CC2)cn1)C1CC1` (single isomer, unassigned) [Example 270, N-[4-amino-2-cyclopropyl-4-oxobutan-2-yl]-5-cyclopropyl-4-(2-fluoroethoxy)pyridine-2-carboxamide]: the EC50 on human CB2 receptors (Human CB2 EC50 (uM)) was 0.0689 µM; on human CB1 receptors (setting [1]) it was more than 10 µM.
Turning to `C[C@H](Oc1cc(C(=O)NC(C(=O)N2CC(F)(F)C2)C(C)(C)C)ncc1C1CC1)C(F)(F)F` (stereo partly drawn) [Example 203, 5-cyclopropyl-N-[1-(3,3-difluoroazetidin-1-yl)-3,3-dimethyl-1-oxobutan-2-yl]-4-[(2S)-1,1,1-trifluoropropan-2-yl]oxypyridine-2-carboxamide], the EC50 at human CB2 receptors (read-out: Human CB2 EC50) was 0.0051 µM; on human CB1 receptors (setting [2]), more than 10 µM.
The corresponding values for `CN(C)C(=O)CC1(NC(=O)c2cc(OCC(F)(F)F)c(Cl)cn2)COC1` [Example 85, 5-Chloro-4-(2,2,2-trifluoro-ethoxy)-pyridine-2-carboxylic acid (3-dimethylcarbamoylmethyl-oxetan-3-yl)-amide] are 0.362 µM and more than 10 µM.
The corresponding values for `CC(CC(N)=O)(NC(=O)c1cc(OCC(F)(F)F)c(C2CC2)cn1)C1CC1` (stereo not shown) [Example 230, N-(4-amino-2-cyclopropyl-4-oxobutan-2-yl)-5-cyclopropyl-4-(2,2,2-trifluoroethoxy)pyridine-2-carboxamide] are 0.0009 µM and more than 10 µM.
Take `Cc1nc(C(C)(NC(=O)c2cc(OCC(F)(F)F)c(C3CC3)cn2)C(=O)N(C)C)no1` (stereo not shown) [Example 181, 5-cyclopropyl-N-[1-(dimethylamino)-2-(5-methyl-1,2,4-oxadiazol-3-yl)-1-oxopropan-2-yl]-4-(2,2,2-trifluoroethoxy)pyridine-2-carboxamide]: the EC50 at human CB2 receptors (read-out: Human CB2 EC50) is 0.002 µM; on human CB1 receptors (setting [2]), more than 10 µM.
For the compound `Cc1nc(C(C)(CS(C)(=O)=O)NC(=O)c2cc(OC(C)CF)c(C3CC3)cn2)no1` (single isomer, unassigned) [Example 295, 5-cyclopropyl-4-(1-fluoropropan-2-yloxy)-N-(2-(5-methyl-1,2,4-oxadiazol-3-yl)-1-(methylsulfonyl)propan-2-yl)picolinamide], the EC50 on human CB2 receptors (Human CB2 EC50 (uM)) was 0.0024 µM; at human CB1 receptors (setting [1]) it was more than 10 µM.
The matching figures for `CC(C)C[C@H](CC(N)=O)NC(=O)c1cc(OCC(F)(F)F)c(C2CC2)cn1` (single isomer, unassigned; enantiomer a) [Example 65, 5-Cyclopropyl-4-(2,2,2-trifluoro-ethoxy)-pyridine-2-carboxylic acid (1-carbamoylmethyl-3-methyl-butyl)-amide (enantiomer A)]: 0.027 µM and more than 10 µM.
On to `NC(=O)CC(NC(=O)c1cc(OCC(F)(F)F)c(C2CC2)cn1)C1CC1` (stereo not shown) [Example 193, N-(3-amino-1-cyclopropyl-3-oxopropyl)-5-cyclopropyl-4-(2,2,2-trifluoroethoxy)pyridine-2-carboxamide], for which the EC50 was 0.114 µM at human CB2 receptors (read-out: Human CB2 EC50) and more than 10 µM at human CB1 receptors (setting [2]).
The matching figures for `Cc1nc(C(C)(CC2CC2)NC(=O)c2cc(O[C@@H](C)C(F)(F)F)c(C3CCC3)cn2)no1` (stereo partly drawn) [Example 110, 5-Cyclobutyl-4-((S)-2,2,2-trifluoro-1-methyl-ethoxy)-pyridine-2-carboxylic acid [2-cyclopropyl-1-methyl-1-(5-methyl-[1,2,4]oxadiazol-3-yl)-ethyl]-amide]: 0.0008 µM and 0.31 µM.
The corresponding values for `NC(=O)CC1(NC(=O)c2cc(OCC(F)F)c(C3(F)CCC3)cn2)CS(=O)(=O)C1` [Example 308, N-[3-(2-amino-2-oxoethyl)-1,1-dioxothietan-3-yl]-4-(2,2-difluoroethoxy)-5-(1-fluorocyclobutyl)pyridine-2-carboxamide] are 0.073 µM and more than 10 µM.
The corresponding values for `O=C(NC1(c2ncco2)COC1)c1cc(OCC2CC2)c(Cl)cn1` [Example 36, 5-Chloro-4-cyclopropylmethoxy-pyridine-2-carboxylic acid (3-oxazol-2-yl-oxetan-3-yl)-amide] are 0.0517 µM and more than 10 µM.
Regarding `Cc1nnc(C(NC(=O)c2cc(OCC(F)(F)F)c(C3CC3)cn2)C(C)(C)C)o1` (stereo not shown) [Example 174, 5-cyclopropyl-N-[2,2-dimethyl-1-(5-methyl-1,3,4-oxadiazol-2-yl)propyl]-4-(2,2,2-trifluoroethoxy)pyridine-2-carboxamide], the EC50 on human CB2 receptors (read-out: Human CB2 EC50) is 0.0218 µM; on human CB1 receptors (setting [2]), more than 10 µM.
The matching figures for `Cc1nc(C(C)(NC(=O)c2cc(OCC(F)(F)F)c(N3CC(F)(F)C3)cn2)C2CC2)no1` (stereo not shown) [Example 78, 5-(3,3-Difluoro-azetidin-1-yl)-4-(2,2,2-trifluoro-ethoxy)-pyridine-2-carboxylic acid [1-cyclopropyl-1-(5-methyl-[1,2,4]oxadiazol-3-yl)-ethyl]-amide]: 0.0061 µM and more than 10 µM.
The corresponding values for `C[C@H](Oc1cc(C(=O)NC(C)(CC(N)=O)C2CC2)ncc1C1CC1)C(F)(F)F` (stereo partly drawn) [Example 259, N-(4-amino-2-cyclopropyl-4-oxobutan-2-yl)-5-cyclopropyl-4-[(2S)-1,1,1-trifluoropropan-2-yl]oxypyridine-2-carboxamide] are 0.0005 µM and more than 10 µM.
Take `Cc1nc(C(C)(NC(=O)c2cc(OCC(F)(F)F)c(C3(F)COC3)cn2)C2CC2)no1` (single isomer, unassigned) [Example 166, N-[1-cyclopropyl-1-(5-methyl-1,2,4-oxadiazol-3-yl)ethyl]-5-(3-fluorooxetan-3-yl)-4-(2,2,2-trifluoroethoxy)pyridine-2-carboxamide]: the EC50 on human CB2 receptors (Human CB2 EC50 (uM)) was 0.31 µM; at human CB1 receptors (setting [1]) it was more than 10 µM.
On to `CNC(=O)C(NC(=O)c1cc(OCC(F)(F)F)c(C2CC2)cn1)C(C)(C)C` (single isomer, unassigned) [Example 225, 5-cyclopropyl-N-[3,3-dimethyl-1-(methylamino)-1-oxobutan-2-yl]-4-(2,2,2-trifluoroethoxy)pyridine-2-carboxamide], for which the EC50 on human CB2 receptors (Human CB2 EC50 (uM)) is 0.0004 µM; on human CB1 receptors (read-out: Human CB1 EC50; functional cAMP assay, CHO cells expressing human CB1), more than 10 µM.
For the compound `CCC(O)CNC(=O)c1cc(OCC2CC2)c(C2CC2)cn1` (stereo not shown) [Example 58, 5-Cyclopropyl-4-cyclopropylmethoxy-pyridine-2-carboxylic acid (2-hydroxy-butyl)-amide], the figures for the EC50 on human CB2 receptors (read-out: Human CB2 EC50) and at human CB1 receptors (setting [2]) were 0.0637 µM and more than 10 µM, respectively.
